According to ChEMBL document CHEMBL1201862, “PubChem BioAssay data set” (2004):
Several values for one entry are separate records, joined by “and”; a condition that tells them apart may be missing. Equal entries are not always repeated. Activity calls are given as the source filed them.

Tests used:
Ephrin type-A receptor 4 = Ephrin type-A receptor 4 (Mus musculus, UniProt Q03137); experiment: EphA4 ligand-binding antagonists – biochemical, colorimetric, mouse EphA4, primary screen (AID 689); assay type: functional
Sequence of Ephrin type-A receptor 4 (Q03137 whole entry): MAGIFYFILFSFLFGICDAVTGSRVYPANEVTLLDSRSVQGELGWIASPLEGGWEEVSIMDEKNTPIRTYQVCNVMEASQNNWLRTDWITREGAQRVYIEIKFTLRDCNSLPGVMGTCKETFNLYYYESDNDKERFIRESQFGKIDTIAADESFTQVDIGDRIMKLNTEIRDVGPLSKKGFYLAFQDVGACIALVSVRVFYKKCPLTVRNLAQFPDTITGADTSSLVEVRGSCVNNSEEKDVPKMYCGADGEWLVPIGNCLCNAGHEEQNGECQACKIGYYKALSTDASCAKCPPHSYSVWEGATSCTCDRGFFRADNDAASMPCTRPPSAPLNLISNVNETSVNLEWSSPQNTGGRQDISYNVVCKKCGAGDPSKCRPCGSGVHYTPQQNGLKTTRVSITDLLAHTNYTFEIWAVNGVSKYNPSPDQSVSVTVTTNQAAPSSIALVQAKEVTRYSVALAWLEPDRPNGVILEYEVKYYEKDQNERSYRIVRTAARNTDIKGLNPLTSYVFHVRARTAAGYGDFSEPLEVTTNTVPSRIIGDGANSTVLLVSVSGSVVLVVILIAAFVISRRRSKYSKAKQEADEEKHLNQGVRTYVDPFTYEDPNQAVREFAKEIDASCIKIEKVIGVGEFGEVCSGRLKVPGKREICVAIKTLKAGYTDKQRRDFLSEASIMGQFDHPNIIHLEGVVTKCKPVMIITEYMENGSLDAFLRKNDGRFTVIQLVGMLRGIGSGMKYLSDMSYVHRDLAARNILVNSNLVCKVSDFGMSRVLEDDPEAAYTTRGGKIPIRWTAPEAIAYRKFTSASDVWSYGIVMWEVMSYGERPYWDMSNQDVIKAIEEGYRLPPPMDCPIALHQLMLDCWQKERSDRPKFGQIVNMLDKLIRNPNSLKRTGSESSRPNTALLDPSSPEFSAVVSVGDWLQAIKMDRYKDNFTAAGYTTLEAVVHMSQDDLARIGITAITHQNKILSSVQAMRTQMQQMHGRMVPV

Estrogen receptor beta [1] = target: T1, Estrogen receptor beta (Homo sapiens, UniProt Q92731); experiment: blockers of SRC-3 recruitment to ERβ – biochemical, ELISA, streptavidin-HRP readout, orthogonal assay, confirmation (AID 1060)
T1 sequence (Q92731 whole entry): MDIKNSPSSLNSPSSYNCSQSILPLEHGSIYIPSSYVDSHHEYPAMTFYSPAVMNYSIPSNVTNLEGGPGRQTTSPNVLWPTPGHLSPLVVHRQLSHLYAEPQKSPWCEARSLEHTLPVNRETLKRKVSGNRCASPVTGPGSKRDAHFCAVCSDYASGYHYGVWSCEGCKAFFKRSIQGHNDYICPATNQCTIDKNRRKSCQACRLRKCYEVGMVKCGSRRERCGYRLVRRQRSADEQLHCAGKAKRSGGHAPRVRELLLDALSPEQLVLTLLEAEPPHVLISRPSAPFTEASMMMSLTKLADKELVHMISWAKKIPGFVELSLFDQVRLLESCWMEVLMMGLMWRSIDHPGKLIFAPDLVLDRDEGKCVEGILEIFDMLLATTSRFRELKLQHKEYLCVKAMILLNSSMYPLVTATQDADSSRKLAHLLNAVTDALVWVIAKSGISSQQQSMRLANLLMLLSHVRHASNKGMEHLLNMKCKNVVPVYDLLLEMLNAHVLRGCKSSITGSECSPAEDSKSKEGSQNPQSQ

[2] = target: T2, Induced myeloid leukemia cell differentiation protein Mcl-1 (Homo sapiens, UniProt Q07820); assay type: functional
T2 sequence (Q07820 whole entry): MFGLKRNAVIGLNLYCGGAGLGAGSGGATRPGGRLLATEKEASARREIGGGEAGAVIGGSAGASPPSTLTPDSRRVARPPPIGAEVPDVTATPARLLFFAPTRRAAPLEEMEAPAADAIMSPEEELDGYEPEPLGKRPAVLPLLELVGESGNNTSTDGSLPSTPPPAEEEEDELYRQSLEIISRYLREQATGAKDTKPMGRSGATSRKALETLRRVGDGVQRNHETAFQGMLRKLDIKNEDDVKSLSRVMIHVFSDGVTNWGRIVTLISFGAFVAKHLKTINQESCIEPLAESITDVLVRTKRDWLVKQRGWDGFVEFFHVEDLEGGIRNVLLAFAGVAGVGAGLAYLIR

Vero = experiment: mammalian cell viability reduction – secondary assay, cytotoxicity control for West Nile virus antiviral project, dose response (AID 1650); assay type: functional; settings: Chlorocebus sabaeus
[3] = target: Solute carrier family 12 member 2/member 5 (Homo sapiens, UniProt P55011+Q9H2X9); experiment: KCC2 and NKCC1 inhibition by rubidium flux, cell-based, NKCC1 counter-screen (AID 1734); assay type: functional, HEK293
[4] = target: T2, Induced myeloid leukemia cell differentiation protein Mcl-1; experiment: blockers of MCL1 binding to BIM peptide – biochemical, fluorescence polarization, BIM-BH3 peptide, 1536-well, dose response (AID 2217)
Bcl-2-like protein 10 = target: T3, Bcl-2-like protein 10 (Homo sapiens, UniProt Q9HD36); experiment: Bcl-B/TR3 peptide binding disruption – biochemical, fluorescence polarization, FITC-TR3 peptide, selectivity assay for Bfl-1 inhibitor project, primary screen (AID 748);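 note: fluorescence polarization from a fluorescein-labelled TR3 peptide binding purified Bcl-B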
T3 sequence (Q9HD36 whole entry): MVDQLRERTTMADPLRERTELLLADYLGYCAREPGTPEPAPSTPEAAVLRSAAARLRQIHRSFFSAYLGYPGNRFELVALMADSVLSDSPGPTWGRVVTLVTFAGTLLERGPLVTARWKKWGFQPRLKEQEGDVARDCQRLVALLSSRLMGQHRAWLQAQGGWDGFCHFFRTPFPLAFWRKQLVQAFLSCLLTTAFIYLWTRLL

[5] = target: T4, Tyrosine-protein phosphatase non-receptor type 7 (Homo sapiens, UniProt P35236); experiment: HePTP tyrosine phosphatase activity blockers – biochemical, absorbance, leukemia target, primary screen (AID 521); assay type: functional
T4 sequence (P35236 whole entry): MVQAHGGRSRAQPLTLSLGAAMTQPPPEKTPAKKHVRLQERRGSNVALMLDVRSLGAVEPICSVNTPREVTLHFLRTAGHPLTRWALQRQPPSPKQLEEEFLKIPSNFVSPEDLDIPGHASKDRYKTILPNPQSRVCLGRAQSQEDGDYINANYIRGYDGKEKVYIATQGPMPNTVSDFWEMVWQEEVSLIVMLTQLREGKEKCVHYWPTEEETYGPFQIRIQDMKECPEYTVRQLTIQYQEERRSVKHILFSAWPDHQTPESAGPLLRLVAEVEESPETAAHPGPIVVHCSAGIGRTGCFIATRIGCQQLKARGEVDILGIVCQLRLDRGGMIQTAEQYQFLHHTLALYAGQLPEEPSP

[6] = target: T5, Dual specificity protein phosphatase 6 (Rattus norvegicus, UniProt Q64346); experiment: inhibition of rat DUSP6 enzyme activity – biochemical, in vitro, primary screen (AID 425)
T5 sequence (Q64346 whole entry): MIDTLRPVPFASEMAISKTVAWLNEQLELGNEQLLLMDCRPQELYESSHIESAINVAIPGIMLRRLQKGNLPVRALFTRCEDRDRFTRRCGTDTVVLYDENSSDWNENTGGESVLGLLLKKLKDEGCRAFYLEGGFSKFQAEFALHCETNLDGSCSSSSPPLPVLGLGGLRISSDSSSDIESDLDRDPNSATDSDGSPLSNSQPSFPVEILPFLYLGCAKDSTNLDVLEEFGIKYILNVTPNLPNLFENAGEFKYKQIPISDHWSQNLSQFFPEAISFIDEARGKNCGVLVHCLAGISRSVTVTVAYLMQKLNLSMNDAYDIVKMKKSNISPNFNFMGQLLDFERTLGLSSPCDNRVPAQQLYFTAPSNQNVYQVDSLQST

Estrogen receptor beta [7] = target: T1, Estrogen receptor beta
Bcl-2-like protein 1 = Bcl-2-like protein 1 (Homo sapiens, UniProt Q07817); experiment: blockers of BCLXL peptide binding – biochemical, fluorescence polarization, 1536-well, selectivity assay for MCL1 inhibitor project, dose response (AID 2218)
Sequence of Bcl-2-like protein 1 (Q07817 whole entry): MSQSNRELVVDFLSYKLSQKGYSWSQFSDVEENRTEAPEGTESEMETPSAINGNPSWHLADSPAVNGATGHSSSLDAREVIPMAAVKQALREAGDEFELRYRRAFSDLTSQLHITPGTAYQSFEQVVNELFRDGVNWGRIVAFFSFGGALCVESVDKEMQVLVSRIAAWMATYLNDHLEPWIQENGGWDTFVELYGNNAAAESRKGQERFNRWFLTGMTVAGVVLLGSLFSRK

Bcl-2-related protein A1 [8] = target: T6, Bcl-2-related protein A1 (Mus musculus, UniProt Q07440); experiment: Bfl-1 binding inhibitors, SAR follow-up, biochemical, fluorescence polarization (AID 1070)
T6 sequence (Q07440 whole entry): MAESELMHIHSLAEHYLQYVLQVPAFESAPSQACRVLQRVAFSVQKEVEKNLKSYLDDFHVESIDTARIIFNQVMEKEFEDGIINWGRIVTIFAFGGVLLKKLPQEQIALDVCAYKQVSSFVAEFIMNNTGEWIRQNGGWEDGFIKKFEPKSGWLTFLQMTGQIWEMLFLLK

Bcl-2-related protein A1 [9] = target: T6, Bcl-2-related protein A1; experiment: small-molecule antagonists of Bfl-1/BH3 interaction – biochemical, TR-FRET, mouse Bfl-1, confirmation (AID 621);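 note: TR-FRET binding of GST-Bfl-1 to FITC-labelled Bid peptide via terbium antibody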
[10] = Luminescence Cell-Based Dose Retest to Confirm Inhibitors of Cancer Stem Cells. [Related pubchem assays (depositor defined):AID2717, AID2721]; assay type: functional; settings: Homo sapiens
Protein RecA = target: T7, Protein RecA (Mycobacterium tuberculosis, UniProt P9WHJ3); experiment: Fluorescence Cell-Free Homogeneous Dose Retest to Identify Inhibitors of RecA-Intein Splicing Activity. [Related pubchem assays (depositor defined):AID2097, AID2223, AID489010, AID492950]; assay type: functional
T7 sequence (P9WHJ3 whole entry): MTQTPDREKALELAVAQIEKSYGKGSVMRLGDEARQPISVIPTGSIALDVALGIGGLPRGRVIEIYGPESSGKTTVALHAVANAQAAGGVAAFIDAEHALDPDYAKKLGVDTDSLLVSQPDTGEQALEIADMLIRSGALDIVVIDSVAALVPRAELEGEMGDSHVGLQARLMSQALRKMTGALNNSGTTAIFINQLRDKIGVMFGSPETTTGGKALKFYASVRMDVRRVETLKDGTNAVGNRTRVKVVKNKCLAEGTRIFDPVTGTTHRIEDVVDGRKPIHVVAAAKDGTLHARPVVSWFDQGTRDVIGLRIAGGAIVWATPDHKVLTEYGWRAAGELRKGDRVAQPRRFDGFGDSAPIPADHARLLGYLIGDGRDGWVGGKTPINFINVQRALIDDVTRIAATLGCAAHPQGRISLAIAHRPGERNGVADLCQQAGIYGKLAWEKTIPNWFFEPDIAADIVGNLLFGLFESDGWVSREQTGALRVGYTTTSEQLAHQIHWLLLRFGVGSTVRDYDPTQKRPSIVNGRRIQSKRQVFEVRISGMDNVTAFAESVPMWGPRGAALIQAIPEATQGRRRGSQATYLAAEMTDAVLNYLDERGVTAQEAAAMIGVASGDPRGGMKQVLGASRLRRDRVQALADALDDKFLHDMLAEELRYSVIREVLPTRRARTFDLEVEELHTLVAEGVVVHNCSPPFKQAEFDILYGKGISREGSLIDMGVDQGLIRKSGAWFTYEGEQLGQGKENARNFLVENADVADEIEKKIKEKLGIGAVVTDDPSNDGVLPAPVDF

Bcl-2-related protein A1 [11] = target: T6, Bcl-2-related protein A1; experiment: displacement of Bid BH3 peptide from Bfl-1 – biochemical, fluorescence polarization, FITC-Bid, mouse, primary screen (AID 432)
[12] = target: Glyceraldehyde-3-phosphate dehydrogenase (Homo sapiens, UniProt P04406)
Sequence of Glyceraldehyde-3-phosphate dehydrogenase (P04406 whole entry): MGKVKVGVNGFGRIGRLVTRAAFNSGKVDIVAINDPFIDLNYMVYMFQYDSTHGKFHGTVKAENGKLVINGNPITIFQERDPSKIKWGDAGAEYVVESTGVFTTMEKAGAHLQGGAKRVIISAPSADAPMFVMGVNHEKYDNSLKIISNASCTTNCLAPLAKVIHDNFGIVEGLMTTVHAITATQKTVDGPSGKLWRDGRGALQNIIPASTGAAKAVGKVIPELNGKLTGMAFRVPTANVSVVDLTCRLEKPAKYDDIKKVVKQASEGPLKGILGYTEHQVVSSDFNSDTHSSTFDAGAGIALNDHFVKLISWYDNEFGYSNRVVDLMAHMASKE

INS1 = experiment: INS-1E survival protection against cytokine death – cell-based, luminescence, retest, dose response (AID 449756); assay type: functional; settings: Rattus norvegicus;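 note: cell death triggered by IL-1 beta plus TNF-alpha plus IFN-gamma mixture; protective hits raise ATP signal compared with cytokine alone wells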
[13] = target: T8, Replicative DNA helicase DnaB (Mycobacterium tuberculosis, UniProt P9WMR3); experiment: DnaB intein splicing inhibitors, dose response, biochemical, cell-free fluorescence (AID 449749); assay type: functional
T8 sequence (P9WMR3 whole entry): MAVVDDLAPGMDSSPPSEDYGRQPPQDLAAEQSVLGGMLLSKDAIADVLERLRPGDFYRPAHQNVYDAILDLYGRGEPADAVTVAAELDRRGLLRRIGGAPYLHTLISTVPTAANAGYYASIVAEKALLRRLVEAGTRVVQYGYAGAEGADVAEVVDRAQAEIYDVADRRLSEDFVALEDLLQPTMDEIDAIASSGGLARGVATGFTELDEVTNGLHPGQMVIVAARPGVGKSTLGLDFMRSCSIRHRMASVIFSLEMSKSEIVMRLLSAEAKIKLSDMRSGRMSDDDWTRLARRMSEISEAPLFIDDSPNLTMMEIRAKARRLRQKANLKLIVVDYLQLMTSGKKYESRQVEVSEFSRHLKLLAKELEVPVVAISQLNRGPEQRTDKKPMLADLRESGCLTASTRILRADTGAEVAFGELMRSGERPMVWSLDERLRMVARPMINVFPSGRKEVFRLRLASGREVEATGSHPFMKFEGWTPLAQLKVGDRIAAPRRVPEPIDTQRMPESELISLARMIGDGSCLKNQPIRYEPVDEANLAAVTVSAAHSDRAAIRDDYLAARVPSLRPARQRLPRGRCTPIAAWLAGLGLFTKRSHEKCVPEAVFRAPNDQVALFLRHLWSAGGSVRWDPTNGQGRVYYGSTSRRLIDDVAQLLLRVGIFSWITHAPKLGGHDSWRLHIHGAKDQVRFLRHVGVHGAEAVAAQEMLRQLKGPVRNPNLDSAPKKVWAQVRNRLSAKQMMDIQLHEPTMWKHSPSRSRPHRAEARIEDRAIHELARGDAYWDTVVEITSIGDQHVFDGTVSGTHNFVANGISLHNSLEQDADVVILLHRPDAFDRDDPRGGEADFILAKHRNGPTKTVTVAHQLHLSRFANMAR

[14] = loss of viability in HepG2 cells – cell-based, CellTiter-Glo, cherry-picked, cytotoxicity control for Shn3 inhibitor project, dose response (AID 624134); assay type: functional
Beta Lactamase = Beta Lactamase (Pseudomonas aeruginosa, UniProt Q932Y6); experiment: BLA reporter interference, concentration series – BLA reporter cells, FRET fluorescence, artefact control for TLR9-MyD88 binding inhibitor project, dose response (AID 588341); assay type: cell-based;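 note: cell based assay in CHO-K1 cells stably expressing beta-lactamase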
Sequence of Beta Lactamase (Q932Y6 whole entry): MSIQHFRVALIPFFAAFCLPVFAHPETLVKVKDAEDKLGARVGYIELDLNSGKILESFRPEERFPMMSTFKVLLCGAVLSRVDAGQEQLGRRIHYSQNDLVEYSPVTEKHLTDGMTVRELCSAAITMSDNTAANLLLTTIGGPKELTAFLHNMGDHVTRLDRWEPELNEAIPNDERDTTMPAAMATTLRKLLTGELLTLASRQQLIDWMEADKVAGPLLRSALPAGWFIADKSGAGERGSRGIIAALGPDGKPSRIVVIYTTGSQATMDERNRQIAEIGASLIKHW

[15] = non-specific 3'UTR reporter inhibition in Clone20-Shn3RL – cell-based, Renilla luciferase, cherry-picked, counter-screen for Shn3 inhibitor project, dose response (AID 624133); assay type: functional
[16] = reduced cellular PGC1a acetyl-lysine signal – cell-based, cherry-picked samples, dose response (AID 720514); assay type: functional;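 note: potency may reflect raised or lowered acetylation signal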
[17] = reduction of Shn3 3'UTR-driven luciferase in osteoblasts – cell-based, Clone20 osteoblasts, firefly luciferase, cherry-picked, dose response (AID 624132); assay type: functional;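 note: firefly luciferase luminescence from reporter carrying the Shn3 3'UTR in osteoblasts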
CHO = CHO cell viability loss, potency – luminescence, cytotoxicity control for TLR9-MyD88 binding inhibitor project, dose response (AID 588339); assay type: functional, cell-based, hamster; settings: Cricetulus griseus;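 note: CHO cells stably coexpressing TLR9 and MyD88 fusions from primary screen; compound exposure lasted 48 hours before viability readout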

With `Cc1nc(C)c(C(=O)Nc2nc3c(C)cccc3s2)o1` the IC50 (Ephrin type-A receptor 4) was 11.3 µM (active), the IC50 (Estrogen receptor beta [1]) was 0.588 µM (not active) and the IC50 [2] was 3.36 µM (active).
In the case of `CC(C)n1nc(C(=O)Nc2cccc(S(=O)(=O)NCc3ccco3)c2)c2ccccc2c1=O`, the CC50 (Vero) is reported as 3.81 µM (active).
For `Cc1ccc(-c2ccc(S(=O)(=O)NCC3CCCO3)cc2)cc1` (stereo unspecified), the IC50 [3] was 7.7 µM (active).
In the case of `COC(=O)c1ccccc1NC(=O)c1noc2c1CCC2`, the IC50 [4] is reported as 13.5 µM (not active), the IC50 (Bcl-2-like protein 10) is reported as 16.5 µM (active) and the IC50 (Estrogen receptor beta [1]) is reported as 9.45 µM (not active). For the same compound, the IC50 [5] was 2.33 µM (active), the IC50 [6] was > 10 µM (not active) and the IC50 (Estrogen receptor beta [7]) was 2.18 µM (active). The IC50 (Bcl-2-like protein 1) was > 109 µM (not active).
In the case of `CCOC(=O)CS(=O)(=O)c1nc(-c2ccccc2)cc(C(F)(F)F)n1`, the IC50 (Bcl-2-related protein A1 [8]) is reported as 5.36 µM (active), the IC50 (Bcl-2-related protein A1 [9]) is reported as 4.63 µM (active) and 1.18 µM (active) and the AC50 [10] is reported as 2.77 µM (active). The EC50 (Protein RecA) was 4.15 µM (active), the IC50 (Bcl-2-related protein A1 [11]) was 3.72 µM (active) and the IC50 [12] was > 100 µM (not active). The AC50 (INS1) was 7.22 µM (active), the AC50 [13] was 2.9 µM (active) and the AC50 [14] was 12.9 µM (active). The IC50 (Beta Lactamase) was 19.2 µM (inactive), the AC50 [15] was 6.93 µM (active) and the AC50 [16] was 6.64 µM (active). The AC50 [17] was 3.42 µM (active) and the IC50 (CHO) was 4.43 µM (active).
